Laboratory results published in patent US8350048B2, “Amide compounds as boosters of antivirals” (Janssen R&D Ireland, priority 2007, dated 2013).
Like-named read-outs stand apart in the source and are kept apart here.

Tests used:
[1] = test system: wild-type HIV-1IIIB strain; assay: Antiviral activity, MT4 LTR-EGFP cellular assay; format: cell-based; parameters: key to Antiviral activity IIIB (pEC50): pEC50 = -log10(EC50); details: wild-type HIV-1 IIIB, MT4 LTR-EGFP cells, three days after infection; for EC50: Human immunodeficiency virus 1, 72 h, read-out: Antiviral activity IIIB (pEC50) (converted)
[2] = test system: MT4 CMV-EGFP cells; assay: Toxicity, mock-infected MT4 CMV-EGFP cells; format: cell-based, human
[3] = Metabolic stability of test compounds (HLM15'); format: in vitro ADME, human; details: for recovery at 15 min, 5 μM: pH 7.4, read-out: Metabolic stability (HLM, % recovery after 15')
[4] = target: T1, CYP3A4 (Homo sapiens, UniProt P08684); assay: CYP450 inhibition CDNA-CYP3A4-BFC; details: for Cyp450 inhibition: CDNA-CYP3A4-BFC (% inhibition): 10 μM test compound, substrate BFC 150 μM, 30 min; for inhibition at 30 min, 10 μM: human, E. coli expressed CYP3A4, pH 7.4, probe BFC 150 μM
T1 sequence (P08684 whole entry): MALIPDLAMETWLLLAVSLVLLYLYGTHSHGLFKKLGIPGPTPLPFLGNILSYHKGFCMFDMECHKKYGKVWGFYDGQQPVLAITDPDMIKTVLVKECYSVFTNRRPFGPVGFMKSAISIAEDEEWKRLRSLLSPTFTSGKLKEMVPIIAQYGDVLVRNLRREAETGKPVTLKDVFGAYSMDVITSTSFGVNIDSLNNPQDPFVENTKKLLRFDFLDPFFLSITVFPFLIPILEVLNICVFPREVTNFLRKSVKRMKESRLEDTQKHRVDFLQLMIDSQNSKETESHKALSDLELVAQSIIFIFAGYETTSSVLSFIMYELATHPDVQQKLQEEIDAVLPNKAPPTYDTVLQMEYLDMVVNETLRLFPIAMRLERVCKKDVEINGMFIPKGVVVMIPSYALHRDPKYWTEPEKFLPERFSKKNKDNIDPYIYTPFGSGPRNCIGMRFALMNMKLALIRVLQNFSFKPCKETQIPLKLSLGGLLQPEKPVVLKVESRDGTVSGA
Source text: (§1) Assay 4: CYP450 Inhibition

[5] = target: T1, CYP3A4; assay: CYP450 inhibition CDNA-CYP3A4-BQ; details: for Cyp450 inhibition: CDNA-CYP3A4-BQ (% inhibition): 10 μM test compound, substrate BQ 60 μM, 30 min; for inhibition at 30 min, 10 μM: human, E. coli expressed CYP3A4, pH 7.4, probe BQ 60 μM
Source text: as §1

[6] = target: CYP2C9 (Homo sapiens, UniProt P11712); assay: in vitro; details: for inhibition at 30 min, 10 μM: human, pH 7.4
Chain of CYP2C9 (P11712 whole entry): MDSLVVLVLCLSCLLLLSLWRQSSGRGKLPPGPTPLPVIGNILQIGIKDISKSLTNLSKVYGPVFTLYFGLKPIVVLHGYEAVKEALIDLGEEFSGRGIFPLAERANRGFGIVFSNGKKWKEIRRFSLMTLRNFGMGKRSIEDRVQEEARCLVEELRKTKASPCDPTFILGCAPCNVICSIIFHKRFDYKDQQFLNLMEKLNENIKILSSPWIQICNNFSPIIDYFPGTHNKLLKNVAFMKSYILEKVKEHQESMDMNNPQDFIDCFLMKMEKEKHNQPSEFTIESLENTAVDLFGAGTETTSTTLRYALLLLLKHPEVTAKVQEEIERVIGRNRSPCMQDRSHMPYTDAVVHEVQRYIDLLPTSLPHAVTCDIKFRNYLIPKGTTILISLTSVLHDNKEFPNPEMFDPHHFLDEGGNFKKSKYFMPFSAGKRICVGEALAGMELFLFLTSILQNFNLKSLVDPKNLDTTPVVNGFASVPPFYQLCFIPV
Source text: as §1

[7] = target: T1, CYP3A4; assay: in vitro; details: for Cyp450 inhibition: CDNA-CYP3A4-DBF (% inhibition): 10 μM test compound, substrate DBF 1 μM, 10 min; for inhibition at 10 min, 10 μM: human, pH 7.4
Source text: as §1

[8] = target: T2, CYP1A2 (Homo sapiens, UniProt P05177); assay: CYP450 inhibition CDNA-CYP1A2-CEC; details: 10 μM test compound, substrate CEC 5 μM, 15 min
T2 sequence (P05177 1-516): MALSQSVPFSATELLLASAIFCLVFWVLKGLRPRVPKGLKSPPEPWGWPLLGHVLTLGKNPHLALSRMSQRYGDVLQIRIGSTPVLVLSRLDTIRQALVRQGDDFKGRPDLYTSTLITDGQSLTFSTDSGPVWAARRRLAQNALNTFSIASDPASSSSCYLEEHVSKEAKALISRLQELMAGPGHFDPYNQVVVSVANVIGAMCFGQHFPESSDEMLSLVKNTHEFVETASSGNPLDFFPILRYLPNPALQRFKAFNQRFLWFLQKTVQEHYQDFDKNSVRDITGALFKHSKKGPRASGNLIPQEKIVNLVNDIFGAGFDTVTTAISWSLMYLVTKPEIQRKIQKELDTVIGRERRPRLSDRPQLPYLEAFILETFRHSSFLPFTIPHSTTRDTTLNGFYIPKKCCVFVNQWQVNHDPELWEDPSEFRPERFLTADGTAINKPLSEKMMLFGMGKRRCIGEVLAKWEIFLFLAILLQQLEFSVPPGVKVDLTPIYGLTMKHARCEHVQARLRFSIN

[9] = target: T3, CYP2D6 (Homo sapiens, UniProt P10635); assay: CYP450 inhibition CDNA-CYP2D6-AMMC; details: 10 μM test compound, substrate AMMC 3 μM, 45 min
T3 sequence (P10635 whole entry): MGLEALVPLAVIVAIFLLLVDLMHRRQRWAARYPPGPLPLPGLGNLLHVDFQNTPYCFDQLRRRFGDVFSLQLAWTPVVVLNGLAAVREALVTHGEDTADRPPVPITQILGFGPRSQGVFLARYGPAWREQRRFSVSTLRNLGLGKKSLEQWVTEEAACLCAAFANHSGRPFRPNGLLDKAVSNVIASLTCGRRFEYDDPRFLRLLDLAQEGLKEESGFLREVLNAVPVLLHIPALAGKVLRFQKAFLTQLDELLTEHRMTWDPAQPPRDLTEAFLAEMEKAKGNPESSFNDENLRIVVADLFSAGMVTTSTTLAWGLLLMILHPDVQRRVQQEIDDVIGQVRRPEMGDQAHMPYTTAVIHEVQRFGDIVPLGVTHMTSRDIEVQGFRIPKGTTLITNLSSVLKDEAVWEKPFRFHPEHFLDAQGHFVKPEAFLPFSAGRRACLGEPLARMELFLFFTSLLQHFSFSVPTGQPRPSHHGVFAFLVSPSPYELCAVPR

[10] = target: T4, CYP2C19 (Homo sapiens, UniProt P33261); assay: CYP450 inhibition CDNA-CYP2C19-CEC; details: 10 μM test compound, substrate CEC 25 μM, 30 min
T4 sequence (P33261 whole entry): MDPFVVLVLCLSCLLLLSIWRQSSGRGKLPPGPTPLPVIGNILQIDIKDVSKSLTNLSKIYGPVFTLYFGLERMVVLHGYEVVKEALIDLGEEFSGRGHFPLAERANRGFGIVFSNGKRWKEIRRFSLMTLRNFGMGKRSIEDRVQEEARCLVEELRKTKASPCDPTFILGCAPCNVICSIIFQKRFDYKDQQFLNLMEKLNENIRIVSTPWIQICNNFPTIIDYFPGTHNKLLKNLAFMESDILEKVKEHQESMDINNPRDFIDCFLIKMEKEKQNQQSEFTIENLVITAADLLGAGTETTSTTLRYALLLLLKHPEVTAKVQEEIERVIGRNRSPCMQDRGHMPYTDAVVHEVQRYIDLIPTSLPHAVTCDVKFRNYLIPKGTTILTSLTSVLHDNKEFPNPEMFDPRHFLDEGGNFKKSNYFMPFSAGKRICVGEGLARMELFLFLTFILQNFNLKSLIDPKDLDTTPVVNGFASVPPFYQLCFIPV

[11] = Toxicity, mock-infected MT4 CMV-EGFP cells; format: cell-based, human; details: human, mock-infected MT4 CMV-EGFP cells; read-out: Toxicity MT4 (pCC50) (converted)
[12] = target: T3, CYP2D6; assay: in vitro; details: pH 7.4
[13] = target: T2, CYP1A2; assay: in vitro; details: E. coli expressed CYP1A2, pH 7.4, probe CEC 5 μM
[14] = target: T4, CYP2C19; assay: in vitro; details: E. coli expressed CYP2C19, pH 7.4, probe CEC 25 μM
[15] = In vivo boosting capacity: pharmacokinetics of darunavir in Beagle dogs; details: fed male Beagle dogs, booster 5 mg/kg oral 15 min before darunavir 5 mg/kg oral, average of 3 dogs
Description: Oral dosing was done by gavage. At all times, the dogs were given free and continuous access to water. Blood samples were collected from the jugular vein at 0 (=predose), 0.5, 1, 2, 4, 7, and 24 h after dose administration. The samples were centrifuged at 1900×g for 10 min at 5° C. to allow plasma separation. Separated plasma was stored in the freezer within two hours after blood sampling. At all times, blood and plasma samples were placed on melting ice and protected from light. […] Values listed are the average of 3 dogs.

[16] = mock-infected MT4 CMV-EGFP cells
[17] = human liver microsomes 1 mg/ml, 5 μM test compound, 15 min

| SMILES | Antiviral activity IIIB (pEC50) [1] | Toxicity MT4 (pCC50) [2, 16] | Cyp450 inhibition: CDNA-CYP3A4-BFC (% inhibition) [4] | Cyp450 inhibition: CDNA-CYP3A4-BQ (% inhibition) [5] | Cyp450 inhibition: CDNA-CYP2C9-MFC (% inhibition) [6] | Cyp450 inhibition: CDNA-CYP3A4-DBF (% inhibition) [7] | Cyp450 inhibition: CDNA-CYP1A2-CEC (% inhibition) [8] | Cyp450 inhibition: CDNA-CYP2D6-AMMC (% inhibition) [9] | Cyp450 inhibition: CDNA-CYP2C19-CEC (% inhibition) [10] | Metabolic stability (HLM, % recovery after 15') [3, 17] | EC50 [1] | CC50 at 3 days [11] | recovery at 15 min, 5 μM [3, 17] | inhibition at 30 min, 10 μM [4] | inhibition at 30 min, 10 μM [5] | inhibition at 30 min, 10 μM [6] | inhibition at 10 min, 10 μM [7] | inhibition at 45 min, 10 μM [12] | inhibition at 15 min, 10 μM [13] | inhibition at 30 min, 10 μM [14] | other results |
| --- | --- | --- | --- | --- | --- | --- | --- | --- | --- | --- | --- | --- | --- | --- | --- | --- | --- | --- | --- | --- | --- |
| CC(C)CN(C[C@@H](O)[C@H](Cc1ccccc1)NC(=O)OCc1cncs1)C(=O)c1ccc2nc(-c3ccncc3)oc2c1 [Compound C48] | <4.00 | <4.00 | 97% | 85% | 99% | 98% | 18% | 74% | 94% |  |  |  |  |  |  |  |  |  |  |  | Metabolic stability (HLM, % recovery after 15') [3]: 91% |
| CCNc1nc2ccc(C(=O)N(CC(C)C)C[C@@H](O)[C@H](Cc3ccccc3)NC(=O)OCc3cncs3)cc2o1 [Compound C27] | =4.07 | <4.00 | 94% | 80% | 94% | 94% | 10% | 70% | 79% | 52% |  |  |  |  |  |  |  |  |  |  |  |
| Cc1nc2ccc(C(=O)N(CC(C)C)C[C@@H](O)[C@H](Cc3ccccc3)NC(=O)OCc3cncs3)cc2o1 [Compound C40, Thiazol-5-ylmethyl (2S,3R)-3-hydroxy-4-(N-isobutyl-2-methylbenzo[d]-oxazole-6-carboxamido)-1-phenylbutan-2-ylcarbamate] |  |  |  |  |  |  |  |  |  |  | > 100 µM | > 100 µM | 60% | 94% | 74% | 89% | 91% | 56% | 0% | 79% |  |
| CC(C)CN(C[C@@H](O)[C@H](Cc1ccccc1)NC(=O)OCc1cncs1)C(=O)c1ccc2nc(N(C)C)oc2c1 [Compound C4] | =4.33 | =4.32 |  |  | 94% |  | 7% | 26% | 82% | 67% |  |  |  |  |  |  |  |  |  |  |  |
| CC(C)CN(C[C@@H](O)[C@H](Cc1ccccc1)NC(=O)OCc1cncs1)C(=O)c1ccc2nc(N3CCCCC3)oc2c1 [Compound C3, Thiazol-5-ylmethyl (2S,3R)-3-hydroxy-4-(N-isobutyl-2-(piperidin-1y1)-benzo[d]oxazole-6-carboxamido)-1-phenylbutan-2-ylcarbamate] |  |  |  |  |  |  |  |  |  |  | 36.3 µM | 32.4 µM | 71% | 95% | 80% | 100% | 95% | 45% | 19% | 90% |  |
| CC(C)CN(C[C@@H](O)[C@H](Cc1ccccc1)NC(=O)OCc1cncs1)C(=O)c1ccc2ncoc2c1 [Compound C38, Thiazol-5-ylmethyl (2S,3R)-3-hydroxy-4-(N-isobutylbenzo[d]oxazole-6-carboxamido)-1-phenylbutan-2-ylcarbamate] |  |  |  |  |  |  |  |  |  |  | > 100 µM | > 100 µM | 67% | 95% | 76% | 93% | 92% | 77% | 7% | 81% |  |
| CC(C)CN(C[C@@H](O)[C@H](Cc1ccccc1)NC(=O)OCc1cncs1)C(=O)c1ccc2nc(NC3CCN(C)CC3)oc2c1 [Compound C25] | <4.00 | <4.00 | 77% | 71% | 12% | 76% | 0% | 67% | 7% | 8% |  |  |  |  |  |  |  |  |  |  |  |
| CC(C)CN(C[C@@H](O)[C@H](Cc1ccccc1)NC(=O)OCc1cncs1)C(=O)c1ccc2ncsc2c1 [Compound C7] | =4.02 |  |  |  | 99% |  |  |  |  | 65% |  |  |  |  |  |  |  |  |  |  | Toxicity MT4 (pCC50) [2]: =4.00; C7h of darunavir [15]: 134 ng/mL |
| CC(C)CN(C[C@@H](O)[C@H](Cc1ccccc1)NC(=O)OCc1cncs1)C(=O)c1ccc2nc(N)sc2c1 [Compound C6, Thiazol-5-ylmethyl (2S,3R)-4-(2-amino-N-isobutylbenzo[d]thiazole-6-carboxamido)-3-hydroxy-1-phenylbutan-2-ylcarbamate] |  |  |  |  |  |  |  |  |  |  | 75.9 µM | > 93.3 µM | 70% | 76% | 85% | 99% | 94% | 83% | 36% | 94% |  |
| CCNc1nc2ccc(C(=O)N(C[C@@H](O)[C@H](Cc3ccccc3)NC(=O)OCc3cncs3)CC(C)(C)O)cc2o1 [Compound C44] | <4.00 | <4.00 |  |  | 95% |  | 0% | 38% | 62% | 70% |  |  |  |  |  |  |  |  |  |  |  |
